Test results reported in US8835485B2, “Prevention and treatment of sarcopenia” (PsiOxus Therapeutics Limited, priority 2009, dated 2014).

Assays:
5-HT1a receptor = biological target: T1, 5-HT1a receptor (Homo sapiens, UniProt P08908); settings: functional tests; cited from earlier work
T1 sequence (P08908 1-422): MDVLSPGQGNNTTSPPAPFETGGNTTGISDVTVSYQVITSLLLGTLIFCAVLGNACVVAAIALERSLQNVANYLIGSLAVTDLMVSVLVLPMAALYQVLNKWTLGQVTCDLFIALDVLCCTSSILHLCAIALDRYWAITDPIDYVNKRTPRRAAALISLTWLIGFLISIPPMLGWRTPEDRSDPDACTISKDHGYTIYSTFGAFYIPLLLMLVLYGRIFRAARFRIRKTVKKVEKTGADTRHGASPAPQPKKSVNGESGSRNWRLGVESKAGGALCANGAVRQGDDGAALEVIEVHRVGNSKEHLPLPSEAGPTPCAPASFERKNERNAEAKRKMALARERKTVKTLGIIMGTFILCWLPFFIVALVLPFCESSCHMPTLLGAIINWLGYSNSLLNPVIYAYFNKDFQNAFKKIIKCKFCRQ

healthy subjects = settings: cited from earlier work
[1] = tested on: Young, healthy, male Wistar Han rats; assay: S-Pindolol in young healthy rats, 16 days: body weight, lean mass, organ weights; type: in vivo, rat; settings: for Gastrocnemius organ weight at the end of the study: gavage once daily, placebo 1234 ± 30; for Soleus organ weight at the end of the study / EDL organ weight at the end of the study / Tibialis organ weight at the end of the study: gavage; for Soleus organ weight at the end of the study: placebo 97 ± 2; for EDL organ weight at the end of the study: placebo 104 ± 3; for Tibialis organ weight at the end of the study: placebo 447 ± 9; for EDL percent increase in weight / Soleus percent increase in weight: versus placebo
Procedure: Young, healthy, male Wistar Han rats (201.8±2.4 g) were housed in groups of two to three per cage under standard conditions. Animals were randomized to receive either 0.3 mg S-Pindolol/kg/d (n=5), 3 mg S-Pindolol/kg/d (n=5) or placebo (n=16) once daily per gavage for 16 days. Body composition (lean mass) of the animals was analyzed using the EchoMRI-700 system (Echo Medical Systems, Houston, Tex., USA) before treatment and at the end of the study. Body weight was recorded before treatment and at the end of study. Organ weights were recorded at the end of study.

[2] = tested on: Old, healthy, male Wistar Han rats; assay: S-Pindolol in old (19 month) rats, 28 days: body weight, lean mass, organ weights; type: in vivo, rat; settings: 3 mg/kg/d
Procedure: Old, healthy, male Wistar Han rats (age 19 month, at the start of the experiment) were housed in groups of two to three per cage under standard laboratory conditions. Animals were randomized to receive either 3 mg/kg/d S-Pindolol/kg/d (n=8), or placebo (n=14) once daily per gavage for 28 days. Body composition (lean mass) of the animals was analyzed using the EchoMRI-700 system (Echo Medical Systems, Houston, Tex., USA) before treatment, once per week during the study and at the end of the study. Body weight was recorded before treatment, once per week during the study and at the end of study. Organ weights were recorded at the end of study. One tibialis muscle per animals was dried at 60° C. for 48 h.

CC(C)NC[C@@H](O)COc1cccc2ccccc12 [(R)-propranolol]
Block of the suppressant effects of 5-HT1a agonists on dorsal raphe neuronal firing (5-HT1a receptor): not

CC(C)NC[C@H](O)COc1cccc2[nH]ccc12 [S-Pindolol, S-(−)-1-(1H-indol-4-yloxy)-3-(1-methylethylamino)propan-2-ol]
Alteration in blood pressure (healthy subjects; in vivo): no alteration
Gastrocnemius organ weight at the end of the study ([1]; 0.3 mg/kg/d): 1420 ± 35 mg
Soleus organ weight at the end of the study ([1]; 0.3 mg/kg/d): 107 ± 2 mg
EDL organ weight at the end of the study ([1]; 0.3 mg/kg/d): 124 ± 6 mg
Tibialis organ weight at the end of the study ([1]; 0.3 mg/kg/d): 526 ± 15 mg
EDL percent increase in weight ([1]; 0.3 mg/kg/d): +19.2%
Soleus percent increase in weight ([1]; 0.3 mg/kg/d): +10.3%
Gastrocnemius organ weight at the end of the study ([1]; 3 mg/kg/d): 1492 ± 37 mg
Soleus organ weight at the end of the study ([1]; 3 mg/kg/d): 103 ± 3 mg
EDL organ weight at the end of the study ([1]; 3 mg/kg/d): 126 ± 4 mg
Tibialis organ weight at the end of the study ([1]; 3 mg/kg/d): 535 ± 22 mg
EDL percent increase in weight ([1]; 3 mg/kg/d): +21.1%
Soleus percent increase in weight ([1]; 3 mg/kg/d): +6.2%
Lean body mass (i.e. muscle mass) ([1]; 0.3 and 3 mg/kg/d, EchoMRI, FIG. 2): dose dependently increased
Body weight (weight gain during treatment) ([1]; high dose (3 mg/kg/d), FIG. 1, p=0.0002 vs placebo): significantly increased
Tibialis organ weight at the end of the study ([2]; gavage, old rats, placebo 827 ± 34): 1034 ± 46 mg
Gastrocnemius organ weight at the end of the study ([2]; gavage, old rats, placebo 2283 ± 78): 2914 ± 133 mg
Lean body mass (i.e. muscle mass) ([2]; old rats, EchoMRI, FIGS. 7, 8): increased
Body weight (change during the treatment period) ([2]; old rats, FIGS. 4, 5): significantly increased
Tibialis dry mass ([2]; old rats, dried at 60° C. for 48 h, placebo 227 ± 9): 276 ± 12 mg
Tibialis dry mass ([2]; old rats, placebo 27.89 ± 0.78): 27.12 ± 0.46%
Tibialis water ([2]; old rats, placebo 72.1 ± 0.78): 72.88 ± 0.46%
Soleus organ weight at the end of the study ([2]; old rats, placebo 181 ± 11): 173 ± 9 mg
EDL organ weight at the end of the study ([2]; old rats, placebo 197 ± 9): 236 ± 5 mg
Lean mass increase compared to baseline ([2]; senile rats, placebo lost 1.5%): 12.7%

CC(C)NC[C@H](O)COc1cccc2ccccc12 [(S)-propranolol, (S)-1-isopropylamino-3-(1-naphthyloxy)-2-propanol]
Block of the suppressant effects of 5-HT1a agonists on dorsal raphe neuronal firing (5-HT1a receptor): blocked

CC(C)NCC(O)COc1cccc2[nH]ccc12 (racemic) [racemic pindolol]
Effect on diastolic blood pressure (healthy subjects; healthy subjects, similar dose): reducing
